Key:
Assay in all cases: relative viability vs DMSO control (72 h) (fraction); higher = more viable cells
SK-ES-1 = system: SK-ES-1
How it was run: (§1)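 ATPLite readings, expressed as percent growth and averaged over up to triplicate wells, provided relative viability. Before reading, sarcoma cell lines seeded in 384-well plates to reach 80–90% confluence received 2.5 µl of serially diluted compound after 24 h, from source plates of 10 mM to 0.0002 mM. Plates were held 72 h at 37 °C, 5% CO2, with 0.1% DMSO as vehicle and a 5 µM positive control. The data were rescaled to 1 for full and 0 for none.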

G401 = system: G401
How it was run: as §1

A204 = system: A204
How it was run: as §1

SW684 = system: SW684
How it was run: as §1

MES-SA = system: MES-SA
How it was run: as §1

VA-ES-BJ = system: VA-ES-BJ
How it was run: as §1

SK-LMS-1 = system: SK-LMS-1
How it was run: as §1

RD = system: RD
How it was run: as §1

KHOS-NP = system: KHOS-NP
How it was run: as §1

SYO-1 = system: SYO-1
How it was run: as §1

HS729 = system: HS729
How it was run: as §1

SW872 = system: SW872
How it was run: as §1

CCOc1cc2ncc(C#N)c(Nc3ccc(OCc4ccccn4)c(Cl)c3)c2cc1NC(=O)/C=C/[C@H]1CCCN1C [Pyrotinib]
Details | relative viability
A204, 5.081 pM | 1.04
A204, 15.24 pM | 1.07
A204, 45.72 pM | 1.08
A204, 0.000137174 µM | 1.04
A204, 0.000411523 µM | 1.06
A204, 0.00123457 µM | 1.07
A204, 0.0037037 µM | 1.09
A204, 0.0111111 µM | 1.11
A204, 0.0333333 µM | 1.07
A204, 0.1 µM | 1.1
A204, 0.3 µM | 1.06
G401, 5.081 pM | 1.04
G401, 15.24 pM | 1.03
G401, 45.72 pM | 1.03
G401, 0.000137174 µM | 1.05
G401, 0.000411523 µM | 1.06
G401, 0.00123457 µM | 1.02
G401, 0.0037037 µM | 1.02
G401, 0.0111111 µM | 1.024
G401, 0.0333333 µM | 1.02
G401, 0.1 µM | 1.02
G401, 0.3 µM | 1.01
HS729, 5.081 pM | 0.989
HS729, 15.24 pM | 0.917
HS729, 45.72 pM | 0.962
HS729, 0.000137174 µM | 0.9073
HS729, 0.000411523 µM | 0.875
HS729, 0.00123457 µM | 0.866
HS729, 0.0037037 µM | 0.857
HS729, 0.0111111 µM | 0.918
HS729, 0.0333333 µM | 0.91
HS729, 0.1 µM | 0.858
HS729, 0.3 µM | 0.808
KHOS-NP, 5.081 pM | 1.08
KHOS-NP, 15.24 pM | 1.12
KHOS-NP, 45.72 pM | 1.08
KHOS-NP, 0.000137174 µM | 1.11
KHOS-NP, 0.000411523 µM | 1.07
KHOS-NP, 0.00123457 µM | 1.09
KHOS-NP, 0.0037037 µM | 1.07
KHOS-NP, 0.0111111 µM | 1.1
KHOS-NP, 0.0333333 µM | 1.073
KHOS-NP, 0.1 µM | 1.09
KHOS-NP, 0.3 µM | 1.08
MES-SA, 5.081 pM | 0.967
MES-SA, 15.24 pM | 0.957
MES-SA, 45.72 pM | 0.9512
MES-SA, 0.000137174 µM | 0.959
MES-SA, 0.000411523 µM | 0.971
MES-SA, 0.00123457 µM | 0.965
MES-SA, 0.0037037 µM | 0.948
MES-SA, 0.0111111 µM | 0.954
MES-SA, 0.0333333 µM | 0.936
MES-SA, 0.1 µM | 0.91
MES-SA, 0.3 µM | 0.863
RD, 5.081 pM | 1.06
RD, 15.24 pM | 1.08
RD, 45.72 pM | 1.11
RD, 0.000137174 µM | 1.11
RD, 0.000411523 µM | 1.07
RD, 0.00123457 µM | 1.08
RD, 0.0037037 µM | 1.14
RD, 0.0111111 µM | 1.08
RD, 0.0333333 µM | 1.11
RD, 0.1 µM | 1.06
RD, 0.3 µM | 1.07
SK-ES-1, 5.081 pM | 0.989
SK-ES-1, 15.24 pM | 1.02
SK-ES-1, 45.72 pM | 1.07
SK-ES-1, 0.000137174 µM | 1.07
SK-ES-1, 0.000411523 µM | 1.02
SK-ES-1, 0.00123457 µM | 1.04
SK-ES-1, 0.0037037 µM | 1.02
SK-ES-1, 0.0111111 µM | 1.04
SK-ES-1, 0.0333333 µM | 0.992
SK-ES-1, 0.1 µM | 0.987
SK-ES-1, 0.3 µM | 0.8694
SK-LMS-1, 5.081 pM | 1.06
SK-LMS-1, 15.24 pM | 1.06
SK-LMS-1, 45.72 pM | 1.06
SK-LMS-1, 0.000137174 µM | 1.07
SK-LMS-1, 0.000411523 µM | 1.08
SK-LMS-1, 0.00123457 µM | 1.06
SK-LMS-1, 0.0037037 µM | 1.09
SK-LMS-1, 0.0111111 µM | 1.08
SK-LMS-1, 0.0333333 µM | 1.07
SK-LMS-1, 0.1 µM | 1.03
SK-LMS-1, 0.3 µM | 1
SW684, 5.081 pM | 1.15
SW684, 15.24 pM | 1.24
SW684, 45.72 pM | 1.221
SW684, 0.000137174 µM | 1.188
SW684, 0.000411523 µM | 1.19
SW684, 0.00123457 µM | 1.17
SW684, 0.0037037 µM | 1.21
SW684, 0.0111111 µM | 1.19
SW684, 0.0333333 µM | 1.15
SW684, 0.1 µM | 1.17
SW684, 0.3 µM | 1.1
SW872, 5.081 pM | 1.05
SW872, 15.24 pM | 1.06
SW872, 45.72 pM | 1.06
SW872, 0.000137174 µM | 1.06
SW872, 0.000411523 µM | 1.07
SW872, 0.00123457 µM | 1.05
SW872, 0.0037037 µM | 0.987
SW872, 0.0111111 µM | 1.01
SW872, 0.0333333 µM | 1.04
SW872, 0.1 µM | 0.987
SW872, 0.3 µM | 0.913
SYO-1, 5.081 pM | 1.01
SYO-1, 15.24 pM | 0.951
SYO-1, 45.72 pM | 0.958
SYO-1, 0.000137174 µM | 0.943
SYO-1, 0.000411523 µM | 0.92
SYO-1, 0.00123457 µM | 0.948
SYO-1, 0.0037037 µM | 0.858
SYO-1, 0.0111111 µM | 0.9
SYO-1, 0.0333333 µM | 0.896
SYO-1, 0.1 µM | 0.862
SYO-1, 0.3 µM | 0.89
VA-ES-BJ, 5.081 pM | 1.06
VA-ES-BJ, 15.24 pM | 1.05
VA-ES-BJ, 45.72 pM | 1.02
VA-ES-BJ, 0.000137174 µM | 1.04
VA-ES-BJ, 0.000411523 µM | 0.99
VA-ES-BJ, 0.00123457 µM | 0.981
VA-ES-BJ, 0.0037037 µM | 1.02
VA-ES-BJ, 0.0111111 µM | 0.983
VA-ES-BJ, 0.0333333 µM | 0.969
VA-ES-BJ, 0.1 µM | 0.9689
VA-ES-BJ, 0.3 µM | 0.942
